Data taken from patent US12649750B2, “Macrocyclic compounds, compositions, and methods of using thereof” (Sionna Therapeutics Inc., priority 2022, dated 2026).

Columns and labels:
[1] = molecular target: T1, NBD1 (Homo sapiens, UniProt P13569); test: Aggregation analysis using differential static light scattering (DSLS), thermal stability of NBD1 (ΔTagg); format: binding; conditions: ΔTagg versus DMSO control, NBD1 0.2 mg/ml
T1 construct: Purified recombinant NBD1 was produced using previously described methods; made in house
Summary of the method: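 Read-out is ΔTagg: the aggregation temperature, taken at the inflection of the light-scattering curve, less the average of DMSO control wells. Recombinant NBD1 (0.2 mg/ml, pH7.6 buffer containing 2 mM ATP) with test compound was heated at 1° C. per minute up to 70° C.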

[2] = molecular target: T2, CFTR (Homo sapiens, UniProt P13569, DEL508-508); test: TECC24 AUC fold over DMSO @10 μM, CFTR-mediated transepithelial chloride transport in CF-HBE cells; format: cell-based; conditions: test agent AUC divided by DMSO vehicle AUC, primary CF-HBE cells, ΔF508 homozygous donor, 48 hours incubation
T2 construct: Primary human bronchial epithelial cells from a ΔF508 homozygous CF donor; host or cells: primary human bronchial epithelial cells (CF-HBE), ΔF508 homozygous donor
Summary of the method: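 Primary ΔF508-homozygous CF bronchial epithelial cells on inserts were incubated 48 h at 36.5 °C with compound in IL-13-containing medium. VT and TEER were then recorded in current-clamp mode (pH 7.4 HEPES bath) with benzamil 10 μM, forskolin 10 μM, then CFTR inhibitor-172 20 μM. The IEQ AUC between forskolin and inhibitor was divided by vehicle AUC.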

T1 sequence (P13569 423-646 limits assumed): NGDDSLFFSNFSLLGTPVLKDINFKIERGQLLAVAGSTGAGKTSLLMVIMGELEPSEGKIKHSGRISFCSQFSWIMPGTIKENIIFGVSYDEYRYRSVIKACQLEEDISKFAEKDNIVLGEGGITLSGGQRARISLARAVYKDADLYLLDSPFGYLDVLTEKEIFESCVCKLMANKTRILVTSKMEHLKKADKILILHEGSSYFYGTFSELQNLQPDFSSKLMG
T2 sequence (P13569 with tags, fused parts or gaps DEL508-508): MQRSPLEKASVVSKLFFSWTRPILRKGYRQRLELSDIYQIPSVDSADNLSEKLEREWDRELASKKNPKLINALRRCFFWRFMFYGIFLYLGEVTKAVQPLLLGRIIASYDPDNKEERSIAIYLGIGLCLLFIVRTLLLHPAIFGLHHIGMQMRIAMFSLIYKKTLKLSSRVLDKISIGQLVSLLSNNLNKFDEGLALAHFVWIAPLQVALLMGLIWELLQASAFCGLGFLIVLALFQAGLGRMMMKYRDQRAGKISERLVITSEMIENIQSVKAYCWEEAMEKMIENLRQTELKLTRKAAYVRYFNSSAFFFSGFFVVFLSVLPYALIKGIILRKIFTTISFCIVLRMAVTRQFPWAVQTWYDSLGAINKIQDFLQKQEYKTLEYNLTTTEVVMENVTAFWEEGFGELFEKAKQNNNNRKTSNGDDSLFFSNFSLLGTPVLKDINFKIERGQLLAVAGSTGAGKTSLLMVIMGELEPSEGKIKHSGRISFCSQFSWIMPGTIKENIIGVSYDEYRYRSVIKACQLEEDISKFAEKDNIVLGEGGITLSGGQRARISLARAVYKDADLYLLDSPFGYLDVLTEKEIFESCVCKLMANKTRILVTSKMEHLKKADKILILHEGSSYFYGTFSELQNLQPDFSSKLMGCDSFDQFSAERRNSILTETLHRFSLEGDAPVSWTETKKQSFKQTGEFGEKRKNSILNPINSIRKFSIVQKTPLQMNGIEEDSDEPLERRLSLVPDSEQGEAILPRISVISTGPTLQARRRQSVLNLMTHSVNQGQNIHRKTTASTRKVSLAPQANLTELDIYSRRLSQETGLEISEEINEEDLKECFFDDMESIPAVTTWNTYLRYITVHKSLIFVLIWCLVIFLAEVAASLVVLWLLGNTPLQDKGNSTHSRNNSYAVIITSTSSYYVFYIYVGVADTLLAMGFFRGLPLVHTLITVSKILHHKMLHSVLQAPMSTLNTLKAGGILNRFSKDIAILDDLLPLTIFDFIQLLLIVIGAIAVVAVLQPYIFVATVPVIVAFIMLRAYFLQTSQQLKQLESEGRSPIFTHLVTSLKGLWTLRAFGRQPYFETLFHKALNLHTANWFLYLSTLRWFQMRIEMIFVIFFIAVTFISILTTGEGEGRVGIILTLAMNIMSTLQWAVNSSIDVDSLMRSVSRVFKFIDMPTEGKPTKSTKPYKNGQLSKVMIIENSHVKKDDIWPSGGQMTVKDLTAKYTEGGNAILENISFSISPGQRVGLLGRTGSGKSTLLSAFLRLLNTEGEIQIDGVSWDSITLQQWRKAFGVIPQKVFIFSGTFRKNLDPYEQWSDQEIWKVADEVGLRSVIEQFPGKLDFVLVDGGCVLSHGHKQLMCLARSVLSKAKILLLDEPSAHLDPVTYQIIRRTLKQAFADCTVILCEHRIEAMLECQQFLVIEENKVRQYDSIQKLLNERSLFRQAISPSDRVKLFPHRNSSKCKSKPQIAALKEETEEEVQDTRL

SMILES: Cn1nc2nc1-c1cc(ccn1)[S+]([O-])c1c(F)cc3[nH]ccc3c1CCS(=O)(=O)CC(C)(C)CCC[C@]2(C)c1cccc(CC(=O)O)c1 (single isomer, unassigned) [Compound 249A]
- DSLS 3D (100 μM ΔT) [1]: C (a value greater than 10 °C and less than or equal to 25 °C is marked “C”)
- TECC (AUC, 10 μM) [2]: C (a value between 20 and 80 is marked “C”)

SMILES: Cn1nc2nc1-c1cc(ccn1)[S+]([O-])c1c(F)cc3[nH]ccc3c1CCS(=O)(=O)CC(C)(C)CCC[C@]2(C)c1cccc(CC(=O)O)c1 (single isomer, unassigned) [Compound 249B]
- DSLS 3D (100 μM ΔT) [1]: C (a value greater than 10 °C and less than or equal to 25 °C is marked “C”)
- TECC (AUC, 10 μM) [2]: B (a value between 12-20 is marked “B”)

SMILES: Cn1nc2nc1-c1cc(ccn1)[S+]([O-])c1c(F)cc3[nH]ccc3c1CCS(=O)(=O)CC(C)(C)CCC[C@]2(C)c1cccc(CCO)c1 (single isomer, unassigned) [Compound 250]
- DSLS 3D (100 μM ΔT) [1]: C (a value greater than 10 °C and less than or equal to 25 °C is marked “C”)
- TECC (AUC, 10 μM) [2]: C (a value between 20 and 80 is marked “C”)

SMILES: C[C@@H](Cc1cccc([C@@]2(C)CCCC(C)(C)CS(=O)(=O)CCc3c(c(F)cc4[nH]ccc34)C(O)c3ccnc(c3)-c3nc2nn3C)c1)C(=O)O (single isomer, unassigned) [Compound 255A]
- DSLS 3D (100 μM ΔT) [1]: B (a value above 5 °C and less than or equal to 10 °C is marked “B”)
- TECC (AUC, 10 μM) [2]: A (a TECC value less than 12 is marked “A”)

SMILES: C[C@@H](Cc1cccc([C@@]2(C)CCCC(C)(C)CS(=O)(=O)CCc3c(c(F)cc4[nH]ccc34)C(O)c3ccnc(c3)-c3nc2nn3C)c1)C(=O)O (single isomer, unassigned) [Compound 255B]
- DSLS 3D (100 μM ΔT) [1]: C (a value greater than 10 °C and less than or equal to 25 °C is marked “C”)
- TECC (AUC, 10 μM) [2]: C (a value between 20 and 80 is marked “C”)

SMILES: Cn1nc2nc1-c1cc(ccn1)[S+]([O-])c1c(F)cc3[nH]ccc3c1CCS(=O)(=O)CC(C)(C)CCC[C@]2(C)c1cccc(CCC(=O)O)c1F (single isomer, unassigned) [Compound 260A]
- DSLS 3D (100 μM ΔT) [1]: C (a value greater than 10 °C and less than or equal to 25 °C is marked “C”)
- TECC (AUC, 10 μM) [2]: C (a value between 20 and 80 is marked “C”)

SMILES: Cn1nc2nc1-c1cc(ccn1)[S+]([O-])c1c(F)cc3[nH]ccc3c1CCS(=O)(=O)CC(C)(C)CCC[C@]2(C)c1cccc(CCC(=O)O)c1F (single isomer, unassigned) [Compound 260B]
- DSLS 3D (100 μM ΔT) [1]: B (a value above 5 °C and less than or equal to 10 °C is marked “B”)
- TECC (AUC, 10 μM) [2]: A (a TECC value less than 12 is marked “A”)

SMILES: C[C@@H](Cc1cccc(C2(C)CCCCCS(=O)(=O)CCc3c(c(F)cc4[nH]ccc34)Oc3ccnc(c3)-c3nc2nn3C)c1)C(=O)O (single isomer, unassigned) [Compound 261A]
- DSLS 3D (100 μM ΔT) [1]: C (a value greater than 10 °C and less than or equal to 25 °C is marked “C”)
- TECC (AUC, 10 μM) [2]: C (a value between 20 and 80 is marked “C”)

SMILES: C[C@@H](Cc1cccc(C2(C)CCCCCS(=O)(=O)CCc3c(c(F)cc4[nH]ccc34)Oc3ccnc(c3)-c3nc2nn3C)c1)C(=O)O (single isomer, unassigned) [Compound 261B]
- DSLS 3D (100 μM ΔT) [1]: A (an ΔTagg value less than or equal to 5 °C is marked “A”)
- TECC (AUC, 10 μM) [2]: A (a TECC value less than 12 is marked “A”)

SMILES: C[C@@H](O)Cc1cccc([C@@]2(C)CCCC(C)(C)CS(=O)(=O)CCc3c(c(F)cc4[nH]ccc34)[S+]([O-])c3ccc(F)c(c3)-c3nc2nn3C)c1 (single isomer, unassigned) [Compound 264]
- DSLS 3D (100 μM ΔT) [1]: C (a value greater than 10 °C and less than or equal to 25 °C is marked “C”)
- TECC (AUC, 10 μM) [2]: C (a value between 20 and 80 is marked “C”)

SMILES: C[C@@H](Cc1cccc(C2(C)CCCC(C)(C)CS(=O)(=O)CCc3c(c(F)cc4[nH]ccc34)Oc3ccnc(c3)-c3nc2nn3C)n1)C(=O)O (single isomer, unassigned) [Compound 266A]
- DSLS 3D (100 μM ΔT) [1]: A (an ΔTagg value less than or equal to 5 °C is marked “A”)
- TECC (AUC, 10 μM) [2]: A (a TECC value less than 12 is marked “A”)

SMILES: C[C@@H](Cc1cccc(C2(C)CCCC(C)(C)CS(=O)(=O)CCc3c(c(F)cc4[nH]ccc34)Oc3ccnc(c3)-c3nc2nn3C)n1)C(=O)O (single isomer, unassigned) [Compound 266B]
- DSLS 3D (100 μM ΔT) [1]: C (a value greater than 10 °C and less than or equal to 25 °C is marked “C”)
- TECC (AUC, 10 μM) [2]: C (a value between 20 and 80 is marked “C”)

SMILES: C[C@H](Cc1cccc([C@@]2(C)CCCC(C)(C)CS(=O)(=O)CCc3c(c(F)c(F)c4[nH]ccc34)[S+]([O-])c3ccnc(c3)-c3nc2nn3C)c1)C(=O)O (single isomer, unassigned) [Compound 269]
- DSLS 3D (100 μM ΔT) [1]: C (a value greater than 10 °C and less than or equal to 25 °C is marked “C”)
- TECC (AUC, 10 μM) [2]: C (a value between 20 and 80 is marked “C”)

SMILES: Cn1nc2nc1-c1cc(ccn1)[S+]([O-])c1c(F)cc3[nH]ccc3c1CCS(=O)(=O)CC(C)(C)CCC[C@]2(C)c1cccc(CC2(C(=O)O)CC2)c1 (single isomer, unassigned) [Compound 271]
- DSLS 3D (100 μM ΔT) [1]: C (a value greater than 10 °C and less than or equal to 25 °C is marked “C”)
- TECC (AUC, 10 μM) [2]: C (a value between 20 and 80 is marked “C”)

SMILES: Cn1nc2nc1-c1cc(ccn1)[S+]([O-])c1c(F)c(F)c3[nH]ccc3c1CCS(=O)(=O)CC(C)(C)CCC[C@]2(C)c1cccc(CC(C)(C)C(=O)O)c1 (single isomer, unassigned) [Compound 274]
- DSLS 3D (100 μM ΔT) [1]: C (a value greater than 10 °C and less than or equal to 25 °C is marked “C”)
- TECC (AUC, 10 μM) [2]: C (a value between 20 and 80 is marked “C”)

SMILES: Cn1nc2nc1-c1cc(ccn1)[S+]([O-])c1c(F)c(F)c3[nH]ccc3c1CCS(=O)(=O)CC(C)(C)CCC[C@]2(C)c1cccc(CCC(=O)O)c1 (single isomer, unassigned) [Compound 281]
- DSLS 3D (100 μM ΔT) [1]: C (a value greater than 10 °C and less than or equal to 25 °C is marked “C”)
- TECC (AUC, 10 μM) [2]: C (a value between 20 and 80 is marked “C”)

SMILES: COCC(Cc1cccc([C@@]2(C)CCCC(C)(C)CS(=O)(=O)CCc3c(c(F)cc4[nH]ccc34)Oc3ccnc(c3)-c3nc2nn3C)c1)C(=O)O (single isomer, unassigned) [Compound 284]
- DSLS 3D (100 μM ΔT) [1]: C (a value greater than 10 °C and less than or equal to 25 °C is marked “C”)
- TECC (AUC, 10 μM) [2]: C (a value between 20 and 80 is marked “C”)

SMILES: COCC(Cc1cccc([C@@]2(C)CCCC(C)(C)CS(=O)(=O)CCc3c(c(F)cc4[nH]ccc34)Oc3ccnc(c3)-c3nc2nn3C)c1)C(=O)O (single isomer, unassigned) [Compound 285]
- DSLS 3D (100 μM ΔT) [1]: C (a value greater than 10 °C and less than or equal to 25 °C is marked “C”)
- TECC (AUC, 10 μM) [2]: C (a value between 20 and 80 is marked “C”)

SMILES: Cn1nc2nc1-c1cc(ccn1)[S+]([O-])c1c(F)c(F)c3[nH]ccc3c1CCS(=O)(=O)CC(C)(C)CCC[C@]2(C)c1cccc(CC(O)CO)c1 (stereo in doubt) [Compound 292, (2R)-3-[3-[(6R)-21,22-difluoro-3,6,10,10-tetramethyl-12,12,24-trioxo-12λ6,24λ4-dithia-3,4,19,28,30-pentazapentacyclo[23.3.1.12,5.015,23.016,20]triaconta-1(29),2(30),4,15,17,20,22,25,27-nonaen-6-yl]phenyl]propane-1,2-diol]
- DSLS 3D (100 μM ΔT) [1]: C (a value greater than 10 °C and less than or equal to 25 °C is marked “C”)
- TECC (AUC, 10 μM) [2]: C (a value between 20 and 80 is marked “C”)

SMILES: Cn1nc2nc1-c1cc(ccc1F)Oc1c(F)cc3[nH]ccc3c1CCS(=O)(=O)CC(C)(C)CCCC2(C)c1cccc(CC(=O)O)c1 (stereo not drawn) [Compound 3, 2-[3-(22,28-Difluoro-3,6,10,10-tetramethyl-12,12-dioxo-24-oxa-12λ^6-thia-3,4,19,30-tetrazapentacyclo[23.3.1.1^2,5.0^15,23.0^16,20]triaconta-1(29),2(30),4,15,17,20,22,25,27-nonaen-6-yl)phenyl]acetic Acid]
- DSLS 3D (100 μM ΔT) [1]: C (a value greater than 10 °C and less than or equal to 25 °C is marked “C”)
- TECC (AUC, 10 μM) [2]: B (a value between 12-20 is marked “B”)

SMILES: Cn1nc2nc1-c1cc(ccc1F)Oc1c(F)cc3[nH]ccc3c1CCS(=O)(=O)CC(C)(C)CCCC2(C)c1cccc(CC2(C(=O)O)CC2)c1 (stereo not drawn) [Compound 14, 1-[[3-(22,28-difluoro-3,6,10,10-tetramethyl-12,12-dioxo-24-oxa-12lambda6-thia-3,4,19,30-tetrazapentacyclo[23.3.1.12,5.015,23.016,20]triaconta-1(29),2(30),4,15,17,20,22,25,27-nonaen-6-yl)phenyl]methyl]cyclopropanecarboxylic Acid]
- DSLS 3D (100 μM ΔT) [1]: C (a value greater than 10 °C and less than or equal to 25 °C is marked “C”)
- TECC (AUC, 10 μM) [2]: B (a value between 12-20 is marked “B”)
